For 38 compounds, IC50 and IC90 results are on record in ChEMBL document CHEMBL4483862, “Open-source discovery of chemical leads for next-generation chemoprotective antimalarials” (2018).

For orientation: IC50 means the concentration needed to halve the response being measured. What is called IC90 is the point of the concentration-response curve where the effect stands at 90%.

The subject of the test is Plasmodium berghei. In words: Luciferase/luciferin-expressing antifolate-resistant parasites were used to infect a culture of HepG2 cells that were pre-incubated with compounds. Infected hepatocytes emit light due to the luciferase reaction. Assay results are presented as the percent inhibition of light emission compared to control. […]. The format is functional. The following applies: sporozoite; for IC90: read-out: LUCIFERASE INFECTION ASSAY - IC90.

Setting [1] is: read-out: LUCIFERASE INFECTION ASSAY - IC50.

On to `COC(=O)Cc1[nH]n(-c2nc3ccccc3s2)c(=O)c1C(C)=NCCO`, for which the IC90 came to 3.67 µM. Where the note is “FFLUC_HILL_SLOPE 1.26, FFLUC_R_SQUARED 0.909, HEPG2TOX_HILL_SLOPE 2.15, HEPG2TOX_R_SQUARED 0.817, PBLUC_HILL_SLOPE 1.27, PBLUC_R_SQUARED 0.77, read-out: LUCIFERASE INFECTION ASSAY - IC50”, the IC50 was 0.646 µM.

Regarding `COc1cc2nc(NC(=O)c3[nH]c4c(c3C)C(=O)CCC4)sc2cc1OC`, the IC90 is > 10 µM. The concentration for half-maximal inhibition (IC50) under setting [1] is > 10 µM.

Turning to `Cc1cc(C(=N)NOC(=O)C(C)(C)C)cc(C(=N)NOC(=O)C(C)(C)C)c1`, the IC90 was > 8.77 µM. Besides, the IC50 under setting [1] is > 8.77 µM.

On to `CN(CC(=O)Nc1c(Cl)cccc1Cl)C(=O)c1cccc(Oc2cccc(C(F)(F)F)c2)c1`, for which the IC90 turned out to be 6.4 µM. For the same compound, the IC50 (PBLUC_HILL_SLOPE 97.2, PBLUC_R_SQUARED 0.277, read-out: LUCIFERASE INFECTION ASSAY - IC50) was 6.26 µM.

Regarding `Oc1ccc(-c2cnc3cnc(-c4ccccc4Cl)cn23)cc1`, the concentration for an effect of 90% (IC90) worked out at 4.1 µM. Besides, the IC50 (HEPG2TOX_HILL_SLOPE 4.19, HEPG2TOX_R_SQUARED 0.981, PBLUC_HILL_SLOPE 3.43, PBLUC_R_SQUARED 0.853, read-out: LUCIFERASE INFECTION ASSAY - IC50) came out at 2.16 µM.

Consider `CCN(CC)S(=O)(=O)c1ccc2c(c1)CCN2Cc1nc2ccccc2c(=O)n1C`, for which the concentration for an effect of 90% (IC90) is > 10 µM. Also, the IC50 (HEPG2TOX_HILL_SLOPE 0.751, HEPG2TOX_R_SQUARED 0.213, PBLUC_HILL_SLOPE 2.58, PBLUC_R_SQUARED 0.526, read-out: LUCIFERASE INFECTION ASSAY - IC50) worked out at 6.02 µM.

`CC(C)(C)c1cc(C(=O)Nc2ccc(Cl)cc2)n(Cc2ccccc2)n1`: the IC90 was > 8.97 µM. Under “PBLUC_HILL_SLOPE 1.52, PBLUC_R_SQUARED 0.257, read-out: LUCIFERASE INFECTION ASSAY - IC50”, the IC50 is 6.98 µM.

Regarding `CN(c1ccccc1)c1cc(C(=O)Nc2ccccc2)ncn1`, the IC90 is 0.681 µM. Under “FFLUC_HILL_SLOPE 2.25, FFLUC_R_SQUARED 0.879, PBLUC_HILL_SLOPE 0.724, PBLUC_R_SQUARED 0.686, read-out: LUCIFERASE INFECTION ASSAY - IC50”, the IC50 stood at 0.0327 µM.

In the case of `Cc1cnc(NC(=O)c2ccccc2NS(=O)(=O)c2cccc(C(F)(F)F)c2)s1`, the 90% effect concentration (IC90) is > 10 µM. For the same compound, the 50% inhibitory concentration (IC50) (HEPG2TOX_HILL_SLOPE 2.85, HEPG2TOX_R_SQUARED 0.86, read-out: LUCIFERASE INFECTION ASSAY - IC50) was > 10 µM.

As for `N#C/C(=N\Nc1cc(C(F)(F)F)cc(C(F)(F)F)c1)C(=O)c1ccco1`, the IC90 is 8.44 µM. For the same compound, the IC50 (FFLUC_HILL_SLOPE 13.1, FFLUC_R_SQUARED 0.556, HEPG2TOX_HILL_SLOPE 1.19, HEPG2TOX_R_SQUARED 0.748, PBLUC_HILL_SLOPE 4.82, PBLUC_R_SQUARED 0.319, read-out: LUCIFERASE INFECTION ASSAY - IC50) is 5.35 µM.

As to `Cc1nnc(Sc2nc(CN3CCCCC3)nc3sc4c(c23)CCC4)s1`, the IC90 was > 10 µM. For the same compound, the IC50 (HEPG2TOX_HILL_SLOPE 9.43, HEPG2TOX_R_SQUARED 0.839, read-out: LUCIFERASE INFECTION ASSAY - IC50) is > 10 µM.

In the case of `O=C(CN1CCC(c2c[nH]c3ccccc23)CC1)Nc1ccc(Cl)c([N+](=O)[O-])c1`, the 90% effect concentration (IC90) worked out at 9.15 µM. In addition, for the setting “FFLUC_HILL_SLOPE 16.3, FFLUC_R_SQUARED 0.426, PBLUC_HILL_SLOPE 3.46, PBLUC_R_SQUARED 0.601, read-out: LUCIFERASE INFECTION ASSAY - IC50”, the IC50 was determined as 4.85 µM.

As to `COc1ccc(CN2CCN(C(=O)c3ccc(-n4cccn4)cc3)CC2)cc1F`, the IC90 was > 10 µM. Moreover, under “HEPG2TOX_HILL_SLOPE 2.97, HEPG2TOX_R_SQUARED 0.899, PBLUC_HILL_SLOPE 2, PBLUC_R_SQUARED 0.568, read-out: LUCIFERASE INFECTION ASSAY - IC50”, the half-maximal inhibitory concentration (IC50) came to 3.44 µM.

Consider `CC(=O)Nc1ccc(CC#N)cc1`, for which the IC90 is > 18.9 µM. Further, the IC50 under setting [1] is > 18.9 µM.

Take `N#Cc1ccc(/C=N/n2c(-c3ccc(F)cc3)cs/c2=N\c2cccnc2)cc1`: the concentration for an effect of 90% (IC90) is > 10 µM. Moreover, the half-maximal inhibitory concentration (IC50) (FFLUC_HILL_SLOPE 41.3, FFLUC_R_SQUARED 0.462, HEPG2TOX_HILL_SLOPE 8.97, HEPG2TOX_R_SQUARED 0.901, PBLUC_HILL_SLOPE 3.58, PBLUC_R_SQUARED 0.653, read-out: LUCIFERASE INFECTION ASSAY - IC50) amounted to 5.78 µM.

Regarding `Cn1ncc(C(C#N)c2nc3ccccc3s2)c(Cl)c1=O` (stereo unspecified), the concentration for an effect of 90% (IC90) is > 10 µM. The half-inhibitory concentration (IC50) under setting [1] was > 10 µM.

Turning to `COc1ccc(N2CCN(c3nccnc3-c3ccccc3)CC2)cc1OC`, the IC90 came out at 0.978 µM. In addition, under setting [1], the IC50 is 0.382 µM.

As for `O=C1c2cccnc2C(=O)N1Cc1ccc2c(c1)OCO2`, the IC90 was > 11.7 µM. The half-inhibitory concentration (IC50) under setting [1] is > 11.7 µM.

In the case of `Cc1cccc(C)c1N(C(=O)CC(c1ccccc1)c1ccccc1)c1nc2ccccc2s1`, the 90% effect concentration (IC90) is > 10 µM. In addition, under “FFLUC_HILL_SLOPE 6.55, FFLUC_R_SQUARED 0.86, PBLUC_HILL_SLOPE 3.66, PBLUC_R_SQUARED 0.235, read-out: LUCIFERASE INFECTION ASSAY - IC50”, the IC50 was 7.33 µM.

`C=CC/N=c1\scc(-c2ccc(Br)s2)n1/N=C/c1ccccc1[N+](=O)[O-]`: the IC90 is > 10 µM. For the same compound, the IC50 under setting [1] was > 10 µM.

As for `O=C(C1CC1)N1CCc2sccc2C1c1ccc(Cl)cc1` (stereo unspecified), the IC90 is > 10.4 µM. For the setting “PBLUC_HILL_SLOPE 3.12, PBLUC_R_SQUARED 0.0785, read-out: LUCIFERASE INFECTION ASSAY - IC50”, the IC50 is 9.69 µM.

`CCc1nn2c(NCc3cccnc3)cc(C)nc2c1-c1ccccc1`: the IC90 is > 9.61 µM. Besides, for the setting “PBLUC_HILL_SLOPE 2.62, PBLUC_R_SQUARED 0.301, read-out: LUCIFERASE INFECTION ASSAY - IC50”, the IC50 stood at 7.32 µM.

In the case of `COc1ccc(-c2nc(C(=O)Nc3ccccc3N3CCN(C)CC3)cs2)cc1OC`, the IC90 was > 10 µM. In addition, under “PBLUC_HILL_SLOPE 1.24, PBLUC_R_SQUARED 0.639, read-out: LUCIFERASE INFECTION ASSAY - IC50”, the concentration for half-maximal inhibition (IC50) turned out to be 2.33 µM.

As to `CC(C)c1ccc(OCC(=O)NC2CCCCCCC2)cc1`, the IC90 was > 10.9 µM. Further, where the note is “PBLUC_HILL_SLOPE 1.5, PBLUC_R_SQUARED 0.0788, read-out: LUCIFERASE INFECTION ASSAY - IC50”, the IC50 is > 10.9 µM.

As to `N#Cc1nc(-c2ccccc2)nc2[nH]c(-c3ccccc3)c(C#N)c12`, the IC90 came to 9.81 µM. Moreover, the IC50 (FFLUC_HILL_SLOPE 4.02, FFLUC_R_SQUARED 0.58, HEPG2TOX_HILL_SLOPE 1.18, HEPG2TOX_R_SQUARED 0.976, PBLUC_HILL_SLOPE 16.6, PBLUC_R_SQUARED 0.228, read-out: LUCIFERASE INFECTION ASSAY - IC50) came out at 8.59 µM.

Take `O=C(NCCO)c1cccc(-c2ccc3ncc(-c4ccc5c(c4)OCO5)n3n2)c1`: the IC90 came to 3.86 µM. Also, the IC50 (HEPG2TOX_HILL_SLOPE 1.62, HEPG2TOX_R_SQUARED 0.792, PBLUC_HILL_SLOPE 12.2, PBLUC_R_SQUARED 0.362, read-out: LUCIFERASE INFECTION ASSAY - IC50) turned out to be 3.22 µM.

In the case of `CCN(CC(=O)NC(C)(C)C)C(=O)c1cc(OC)c(Br)c(OC)c1`, the IC90 was > 10 µM. Besides, the IC50 under setting [1] is > 10 µM.

`Cc1ccc(-n2c(C)cc(C(=O)CSc3n[nH]c(=O)n3C3CC3)c2C)cc1C`: the IC90 was > 10 µM. Moreover, under setting [1], the IC50 is > 10 µM.

Turning to `Clc1ccc(CNc2ncc3c(n2)CCN(Cc2ccccc2)C3)cc1Cl`, the IC90 was > 8.26 µM. Further, the IC50 under setting [1] was > 8.26 µM.

As to `CCCNC(=O)c1c(NC(=O)c2ccc(F)cc2)nc2ccccn12`, the IC90 is 5.82 µM. The IC50 (HEPG2TOX_HILL_SLOPE 16.9, HEPG2TOX_R_SQUARED 0.391, PBLUC_HILL_SLOPE 4.88, PBLUC_R_SQUARED 0.525, read-out: LUCIFERASE INFECTION ASSAY - IC50) was determined as 3.71 µM.

Regarding `NC(c1csc(NC(=O)Nc2cccc(C(F)(F)F)c2)n1)C1CCCCC1` (stereo unspecified), the IC90 came out at 6.65 µM. The IC50 (PBLUC_HILL_SLOPE 23.3, PBLUC_R_SQUARED 0.126, read-out: LUCIFERASE INFECTION ASSAY - IC50) was 6.05 µM.

Regarding `CC(C)(C)C(=O)/C=c1\[nH]c(=O)/c(=C\c2ccc(Oc3ccc(F)cc3)c([N+](=O)[O-])c2)s1`, the IC90 was > 10 µM. Also, the IC50 under setting [1] was > 10 µM.

Turning to `COc1ccc(NC(=O)c2ccc3c(c2)C(=O)N(c2ccccc2Cl)C3=O)cn1`, the IC90 is > 10 µM. Also, the IC50 under setting [1] was > 10 µM.

For `Cc1ccc(Sc2nc3ccccc3nc2NS(=O)(=O)c2ccc(F)cc2C)cc1`, the IC90 is > 10 µM. Under “HEPG2TOX_HILL_SLOPE 0.43, HEPG2TOX_R_SQUARED 0.741, read-out: LUCIFERASE INFECTION ASSAY - IC50”, the IC50 is > 10 µM.

On to `Cc1nn2c(=O)cc(C(C)C)[nH]c2c1-c1ccc(F)cc1`, for which the IC90 is > 11.6 µM. Under setting [1], the 50% inhibitory concentration (IC50) was > 11.6 µM.

As to `CC1(C)CC(=O)c2c(SCCOC(=O)Nc3ccccc3)sc(C#N)c2C1`, the IC90 was > 8.24 µM. Moreover, under setting [1], the IC50 was > 8.24 µM.

For the compound `O=C(CSc1nnc(N2CCCC2)n1-c1ccccc1Cl)N1CCC(c2ccccc2)=N1`, the IC90 is > 10 µM. Under setting [1], the IC50 is > 10 µM.

For the compound `COc1ccc(C(N)c2csc(NC(=O)c3cc(C(C)(C)C)nn3Cc3ccccc3)n2)cc1` (stereo unspecified), the concentration for an effect of 90% (IC90) worked out at 4.86 µM. In addition, for the setting “HEPG2TOX_HILL_SLOPE 0.0688, HEPG2TOX_R_SQUARED 0.351, PBLUC_HILL_SLOPE 6.29, PBLUC_R_SQUARED 0.765, read-out: LUCIFERASE INFECTION ASSAY - IC50”, the IC50 stood at 3.43 µM.
